Tests used:
[1] = biological target: KRAS (G12C)::SOS1 protein-protein interaction (Homo sapiens (Human), UniProt P01116, C118S/C51S/C80L/G12C); experiment: KRAS::SOS1 AlphaScreen binding assay (KRAS G12C); settings: GDP
Text: This assay can be used to examine the potency with which compounds according to the invention binding to (mutated) KRAS inhibit the protein-protein interaction between SOS1 and (mutated) KRAS e.g. KRAS G12C, KRAS G12D. […] Low IC50 values in this assay setting are indicative of strong inhibition of protein-protein interaction between SOS1 and KRAS:
These assays measure the inhibitory effect of compounds on KRAS mutant protein-protein interactions using the Alpha Screen technology by Perkin Elmer.
The following (mutant) enzyme forms of KRAS and interacting proteins are used in these assays at the given concentrations:
KRAS (G12C) 1-169, N-terminal 6His-tag for purification, cleaved off, C-terminal avi-tag, biotinylated, mutations: C51S, C80L, C118S (in house); final assay concentration 7.5 nM and SOS1 564-1049, N-terminal 229 GST-tag, TEV cleavage site (Viva Biotech Ltd); final assay concentration 5 nM;
Test compounds dissolved in DMSO are dispensed onto assay plates (Proxiplate 384 PLUS, white, PerkinElmer; 6008289) using an Access Labcyte Workstation with the Labcyte Echo 55x. For the chosen highest assay concentration of 100 μM, 150 nL of compound solution are transferred from a 10 mM DMSO compound stock solution. A series of eleven fivefold dilutions per compound are transferred to the assay plate, compound dilutions are tested in duplicates. DMSO are added as backfill to a total volume of 150 nL.
The assays run on a fully automated robotic system in a darkened room below 100 Lux. To 150 nl of compound dilution 10 μl of a mix including KRAS mutant protein, SOS1 (final assay concentrations see above) and GDP nucleotide (Sigma G7127; final assay concentration 10 μM) in assay buffer (1×PBS, 0.1% BSA, 0.05% Tween 20) are added into columns 1-24.
After 30 minutes incubation time 5 μl of Alpha Screen bead mix in assay buffer are added into columns 1-23. Bead mix consists of AlphaLISA Glutathione Acceptor Beads (PerkinElmer, Cat No AL109) and AlphaScreen Streptavidin Donor Beads (PerkinElmer Cat No 6760002) in assay buffer at a final assay concentration of 10 μg/mL each.
Plates are kept at room temperature in a darkened incubator. After an additional 60 minutes incubation time the signal is measured in a PerkinElmer Envision HTS Multilabel Reader using the AlphaScreen specs from PerkinElmer.
Each plate contains up to 16 wells of a negative control depending on the dilution procedure (platewise or serial) (DMSO instead of test compound; with KRAS mutant::SOS1 GOP mix and bead mix; column 23) and 16 wells of a positive control (DMSO instead of test compound; with KRAS mutant::SOS1 GOP mix w/o bead mix; column 24).
As internal control known inhibitors of KRAS mutant::SOS1 interaction can be measured on each compound plate.
IC50 values are calculated and analyzed with Boehringer Ingelheim's MEGALAB C50 application using a 4 parametric logistic model.
Tables of example compounds disclosed herein contain IC50 values determined using the above assays (see Table 43).

[2] = Metabolic (microsomal) stability assay, human liver microsomes (HLM); assay type: in vitro ADME; settings: 1 μM test compound, predicted clearance as percent of liver blood flow
Protocol: The metabolic degradation of the test compound is assayed at 37° C. with pooled liver microsomes (mouse (MLM), rat (RLM) or human (HLM)). The final incubation volume of 48 μL per time point contains TRIS buffer (pH 7.5; 0.1 M), magnesium chloride (6.5 mM), microsomal protein (0.5 mg/mL for mouse/rat, 1 mg/mL for human specimens) and the test compound at a final concentration of 1 μM. Following a short preincubation period at 37° C., the reactions are initiated by addition of 12 μL beta-nicotinamide adenine dinucleotide phosphate, reduced form (NADPH, 10 mM) and terminated by transferring an aliquot into solvent after different time points (0, 5, 15, 30, 60 min). Additionally, the NADPH-independent degradation is monitored in incubations without NADPH, terminated at the last time point by addition of acetonitrile. The quenched incubations are pelleted by centrifugation (4,000 rpm, 15 min). An aliquot of the supernatant is assayed by LC-MS/MS to quantify the concentration of parent compound in the individual samples.
In vitro intrinsic clearance (CLint,in vitro) is calculated from the time course of the disappearance of the test drug during the microsomal incubation. Each plot is fitted to the first-order elimination rate constant as C(t)=C0*exp(−ke*t), where C(t) and C0 are the concentration of unchanged test drug at incubation time t and that at preincubation and ke is the disappearance rate constant of the unchanged drug. Subsequently, CLint, in vitro (μL min^−1·amount protein) values are converted to predicted CLint,in vivo (mL min^−1·kg^−1) from incubation parameters according to the equation CLint, in vivo=CLint, in vitro×(incubation volume (mL)/amount protein (mg))×(amount protein (mg)/g liver tissue)×(liver weight/body wt.).
For better across species comparison the predicted clearance is expressed as percent of the liver blood flow [% QH] (mL min^−1·kg^−1) in the individual species. In general, high stability (corresponding to low % QH) of the compounds across species is desired.

KRAS (G12C)::SOS1 protein-protein interaction, sequence (P01116 other isoform, or with tags, fused parts or gaps G12C/C51S/C80L/C118S): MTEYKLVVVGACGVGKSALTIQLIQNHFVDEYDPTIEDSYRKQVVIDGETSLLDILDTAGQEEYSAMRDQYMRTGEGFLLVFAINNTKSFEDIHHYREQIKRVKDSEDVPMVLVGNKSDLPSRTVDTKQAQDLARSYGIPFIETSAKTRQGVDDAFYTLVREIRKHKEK

With `COCCn1c(=O)n([C@@H]2CCOC2)c2nc(-c3onc4c3CCC[C@@]43CCCc4sc(N)c(C#N)c43)nc(O[C@@H](C)[C@@H]3CCCN3C)c21` [I-1] the IC50 [1] was 2 nM and the “HLM QH” value [2] was 65%.
In the case of `CO[C@H]1C[C@@H]([C@H](C)Oc2nc(-c3onc4c3CCC[C@@]43CCCc4sc(N)c(C#N)c43)nc3c2n(C)c(=O)n3[C@@H]2CCOC2)N(C)C1` [I-2], the IC50 [1] is reported as 1 nM and the “HLM QH” value [2] is reported as 73%.
For `CO[C@@H]1C[C@@H]([C@H](C)Oc2nc(-c3onc4c3CCC[C@@]43CCCc4sc(N)c(C#N)c43)nc3c2n(C)c(=O)n3[C@@H]2CCOC2)N(C)C1` [I-3], the IC50 [1] was 1 nM and the “HLM QH” value [2] was 42%.
In the case of `C[C@H](Oc1nc(-c2onc3c2CCC[C@@]32CCCc3sc(N)c(C#N)c32)nc2c1n(C)c(=O)n2[C@@H]1CCOC1)[C@@H]1[C@H](F)CCN1C` [I-4], the IC50 [1] is reported as 2 nM and the “HLM QH” value [2] is reported as 49%.
For `C[C@H](Oc1nc(-c2onc3c2CCC[C@@]32CCCc3sc(N)c(C#N)c32)nc2c1n(C)c(=O)n2[C@@H]1CCOC1)[C@@H]1[C@@H](F)CCN1C` [I-5], the IC50 [1] was 1 nM and the “HLM QH” value [2] was 65%.
In the case of `CO[C@H]1CCN(C)[C@@H]1[C@H](C)Oc1nc(-c2onc3c2CCC[C@@]32CCCc3sc(N)c(C#N)c32)nc2c1n(C)c(=O)n2[C@@H]1CCCOC1` [I-6], the IC50 [1] is reported as 2 nM and the “HLM QH” value [2] is reported as 73%.
In the case of `COCCn1c(=O)n(C)c2c(O[C@@H](C)[C@@H]3CCCN3C)nc(-c3onc4c3CCC[C@@]43CCCc4sc(N)c(C#N)c43)nc21` [I-7], the IC50 [1] is reported as 3 nM and the “HLM QH” value [2] is reported as under 24%.
With `C[C@H](Oc1nc(-c2onc3c2CCC[C@@]32CCCc3sc(N)c(C#N)c32)nc2c1[nH]c(=O)n2[C@@H]1CCOC1)[C@@H]1CCCN1C` [I-8] the IC50 [1] was 1 nM and the “HLM QH” value [2] was under 24%.
With `C[C@H](Oc1nc(-c2onc3c2CCC[C@@]32CCCc3sc(N)c(C#N)c32)nc2c1n(C)c(=O)n2[C@H]1CCOC1)[C@@H]1CCCN1C` [I-9] the IC50 [1] was 2 nM and the “HLM QH” value [2] was under 24%.
With `C[C@H](Oc1nc(-c2onc3c2CCC[C@@]32CCCc3sc(N)c(C#N)c32)nc2c1n(C)c(=O)n2C1CCOCC1)[C@@H]1CCCN1C` [I-10] the IC50 [1] was 2 nM and the “HLM QH” value [2] was 33%.
Compound `C[C@H](Oc1nc(-c2onc3c2CCC[C@@]32CCCc3sc(N)c(C#N)c32)nc2c1n(C)c(=O)n2[C@H]1CCCOC1)[C@@H]1CCCN1C` [I-11] has an IC50 [1] of 4 nM.
In the case of `C[C@H](Oc1nc(-c2onc3c2CCC[C@@]32CCCc3sc(N)c(C#N)c32)nc2c1n(C)c(=O)n2[C@@H]1CCCOC1)[C@@H]1CCCN1C` [I-12], the IC50 [1] is reported as 1 nM and the “HLM QH” value [2] is reported as under 24%.
For `C[C@H](Oc1nc(-c2onc3c2CCC[C@@]32CCCc3sc(N)c(C#N)c32)nc2c1[nH]c(=O)n2[C@@H]1CCCOC1)[C@@H]1CCCN1C` [I-13], the IC50 [1] was 2 nM and the “HLM QH” value [2] was under 24%.
In the case of `CO[C@@H]1C[C@@H]([C@H](C)Oc2nc(-c3onc4c3CCC[C@@]43CCCc4sc(N)c(C#N)c43)nc3c2n(C)c(=O)n3[C@@H]2CCCOC2)N(C)C1` [I-14], the IC50 [1] is reported as 2 nM and the “HLM QH” value [2] is reported as 27%.
With `C[C@H](Oc1nc(-c2onc3c2CCC[C@@]32CCCc3sc(N)c(C#N)c32)nc2c1n(C)c(=O)n2C12COC(C1)C2)[C@@H]1CCCN1C` [I-15] the IC50 [1] was 2 nM and the “HLM QH” value [2] was under 24%.
With `CO[C@H]1C[C@H](n2c(=O)n(C)c3c(O[C@@H](C)[C@@H]4CCCN4C)nc(-c4onc5c4CCC[C@@]54CCCc5sc(N)c(C#N)c54)nc32)C1` [I-16] the IC50 [1] was 5 nM and the “HLM QH” value [2] was under 24%.
For `C[C@@H]1COC[C@H](n2c(=O)n(C)c3c(O[C@@H](C)[C@@H]4CCCN4C)nc(-c4onc5c4CCC[C@@]54CCCc5sc(N)c(C#N)c54)nc32)C1` [I-44], the IC50 [1] was 2 nM.
For `C[C@H](Oc1nc(-c2onc3c2CCC[C@@]32CCCc3sc(N)c(C#N)c32)nc2c1n(C)c(=O)n2[C@@]12COC[C@@H]1C2)[C@@H]1CC[C@H](C)N1C` [I-45], the “HLM QH” value [2] was 41%.
With `CO[C@@H]1C[C@@H]([C@H](C)Oc2nc(-c3onc4c3CCC[C@@]43CCCc4sc(N)c(C#N)c43)nc3c2n(C)c(=O)n3[C@@]23COC[C@@H]2C3)N(C)C1` [I-46] the “HLM QH” value [2] was 34%.
In the case of `C[C@H](Oc1nc(-c2onc3c2CCC[C@@]32CCCc3sc(N)c(C#N)c32)nc2c1n(C)c(=O)n2[C@H]1CO[C@@H](C)C1)[C@@H]1CCCN1C` [I-47], the “HLM QH” value [2] is reported as under 24%.
In the case of `C[C@H](Oc1nc(-c2onc3c2CCC[C@@]32CCCc3sc(N)c(C#N)c32)nc2c1n(C)c(=O)n2[C@H]1CO[C@@H](C)C1)[C@@H]1CC[C@H](C)N1C` [I-50], the “HLM QH” value [2] is reported as 35%.
For `CO[C@H]1CCN(C)[C@@H]1[C@H](C)Oc1nc(-c2onc3c2CCC[C@@]32CCCc3sc(N)c(C#N)c32)nc2c1n(C)c(=O)n2[C@H]1COC[C@@H](C)C1` [I-51], the “HLM QH” value [2] was 74%.
For `CO[C@@H]1C[C@@H]([C@H](C)Oc2nc(-c3onc4c3CCC[C@@]43CCCc4sc(N)c(C#N)c43)nc3c2n(C)c(=O)n3[C@H]2COC[C@@H](C)C2)N(C)C1` [I-52], the “HLM QH” value [2] was 46%.
For `C[C@H](Oc1nc(-c2onc3c2CCC[C@@]32CCCc3sc(N)c(C#N)c32)nc2c1CN(C1COC1)C[C@]21CCOC1)[C@@H]1CC[C@H](C)N1C` [I-55], the “HLM QH” value [2] was 52%.
In the case of `C[C@H](Oc1nc(-c2onc3c2CCC[C@@]32CCCc3sc(N)c(C#N)c32)nc2c1CN(C1COC1)C[C@]21CCOC1)[C@@H]1CCCN1C` [I-56], the “HLM QH” value [2] is reported as under 24%.
With `CO[C@H]1CCN(C)[C@@H]1[C@H](C)Oc1nc(-c2onc3c2CCC[C@@]32CCCc3sc(N)c(C#N)c32)nc2c1CN(C1COC1)C[C@]21CCOC1` [I-57] the “HLM QH” value [2] was 61%.
In the case of `CO[C@@H]1C[C@@H]([C@H](C)Oc2nc(-c3onc4c3CCC[C@@]43CCCc4sc(N)c(C#N)c43)nc3c2CN(C2COC2)C[C@]32CCOC2)N(C)C1` [I-58], the “HLM QH” value [2] is reported as 52%.
For `C[C@H](Oc1nc(-c2noc3c2CCC[C@@]32CCCc3sc(N)c(C#N)c32)nc2c1n(C)c(=O)n2[C@H]1CO[C@@H](C)C1)[C@@H]1CCCN1C` [II-5], the “HLM QH” value [2] was 36%.
With `CO[C@@H]1C[C@@H]([C@H](C)Oc2nc(-c3noc4c3CCC[C@@]43CCCc4sc(N)c(C#N)c43)nc3c2n(C)c(=O)n3[C@@]23COC[C@@H]2C3)N(C)C1` [II-6] the “HLM QH” value [2] was 52%.
In the case of `C[C@H](Oc1nc(-c2noc3c2CCC[C@@]32CCCc3sc(N)c(C#N)c32)nc2c1CN(C1COC1)C[C@]21CCOC1)[C@@H]1CCCN1C` [II-12], the “HLM QH” value [2] is reported as 26%.
With `CO[C@H]1CCN(C)[C@@H]1[C@H](C)Oc1nc(-c2noc3c2CCC[C@@]32CCCc3sc(N)c(C#N)c32)nc2c1CN(C1COC1)C[C@]21CCOC1` [II-13] the “HLM QH” value [2] was 66%.
For `CO[C@@H]1C[C@@H]([C@H](C)Oc2nc(-c3noc4c3CCC[C@@]43CCCc4sc(N)c(C#N)c43)nc3c2CN(C2COC2)C[C@]32CCOC2)N(C)C1` [II-14], the “HLM QH” value [2] was 59%.
In the case of `C[C@H](Oc1nc(-c2noc3c2CCC[C@@]32SCCc3sc(N)c(C#N)c32)nc2c1COC[C@]21CCOC1)[C@@H]1CCCN1C` [II-16], the “HLM QH” value [2] is reported as 64%.

Source: patent US20250019385A1, “SPIROCYCLIC ANNULATED 2-AMINO-3-CYANO THIOPHENES AND DERIVATIVES FOR THE TREATMENT OF CANCER” (Boehringer Ingelheim International GmbH, priority 2023, published 2025)
